The subject of this test is western and northern corn rootworm. Nature of the test: Field trial (Example 3): corn rootworm damage by Iowa class, percent of control and synergy threshold. Type of test: in vivo. On the procedure:
The determination of damage by corn rootworm was made according to the following protocol. At stage V4-V6, an evaluation of early stand was made by counting the number of plants per acre. At stage VT-R1, an evaluation of corn rootworm damage was carried out by methods that are well known in the industry, and damage by corn rootworm was reported according to the Iowa 1-6 rating system. In that system, the root systems of 10 corn plants per plot are recovered and scored using the 1-6 rating scale, where: 1=no injury or only a few minor feeding scars, 2=feeding injury evident, but no roots eaten back to 1½ inches of the plant, 3=at least one root eaten off to within 1½ inches of the plant, but never an entire node of roots destroyed, 4=one node of roots eaten back to within 1½ inches of the plant, 5=two nodes (circles) of roots eaten back to within 1½ inches of the plant, 6=three nodes (circles) of roots eaten back to within 1½ inches of the plant.
A field trial was run in accordance with pertinent protocols and in conformance with USDA notification requirements. The purpose of the trial was to determine the efficacy of transgenic event Cry3Bb.11231 in corn seed in combination with corn rootworm seed treatments using imidacloprid.
For each growing site that was selected, the plot design included the following:
The following seed treatment combinations were used for each growing area:
All seed treatments with pesticides were carried out as described in Example 1. In seed treatment number 1 and 2, Gaucho® was used for wire worm protection, but at levels sufficiently low that it would be expected to have no effect on corn rootworms (i.e., at a treatment level of about 60 gm of active/100 kg seed or 0.16 mg active/kernel), otherwise, seed receiving treatment number 2 had only transgenic event Cry3Bb.11231 and no pesticide treatment that would be expected to be effective against corn rootworm.
For seeds having treatments numbered 3 through 5, the pesticides were applied by the methods described in Example 1. For seeds having treatment numbers 6 and 7, commercially available Force® 3G and Lorsban® 15G were applied to the soil in a 5″ band at the time of sowing. The levels of application are as shown and are within the ranges recommended for standard commercial practice.
Corn seeds to be tested were planted and grown at four different locations across several Midwestern states in the United States corn belt according to the protocol described above.
The determination of damage by corn root worm was made according to the protocol described in Example 2.
The combination of imidacloprid seed treatment with corn seed having a Cry3Bb.11231 transgenic event was tested for possible synergy at a level of rootworm damage of 3-6. In the first test, shown in Table 2(A), the percentage of test plants having damage levels of from 3 to 6, on the Iowa 1-6 Scale, was determined for the control and for seeds treated with the pesticide at two levels, and for seeds having the transgenic event, alone and in combination. The following formula was then used to calculate a “synergy threshold”:
(% of control Cry3Bb.11231)*(% of control imidacloprid treatment)/100.
This threshold was compared against the percent of control for the treatment combination (i.e., Cry3Bb.11231 with imidacloprid @ 400 gm/100 kg). If the treatment combination percent of control was below the threshold, then it was concluded that there was synergy.
It was believed that the measurement of rootworm damage at higher damage levels (i.e., levels 3-6) is a useful indicator that correlates with subsequent yield loss due to such damage. The reason for this is that rootworm damage at levels 1 and 2 seldom causes corn plants to fall over and lodge, and such minimal root loss is not believed to reduce the number or weight of kernels per ear. However, root damage at levels of 3 and above increasingly causes lodging and loss of yield. […]

Structures are written as SMILES.

As to `O=[N+]([O-])NC1=NCCN1Cc1ccc(Cl)nc1` [Imidacloprid, 1-[(6-chloro-3-pyridinyl)methol]-N-nitro-2-imidazolidinimime], the “PERCENT OF CONTROL” value amounted to 80.5% (Table 2(A), plants with damage levels 3-6 relative to isohybrid control, imidacloprid @ 400 g/100 kg of seed) and 80.5% (Table 2(B), damage levels 3-6 relative to untreated control, imidacloprid @ 400 gm/100 kg). For the same molecule, the “NUMBER OF PLANTS HAVING 3-6 DAMAGE LEVEL” value (Table 2(B), Iowa 1-6 Scale levels 3-6, imidacloprid @ 400 gm/100 kg) came to 71.7. Further, the “protection against corn rootworm damage (in words)” value (imidacloprid at 400 gm/100 kg of seed) was “effective against corn rootworm damage”. Moreover, the “CORN ROOTWORM DAMAGE IN EACH IOWA CLASS (IOWA 1-6 SCALE): 1” value (plants in Iowa class 1, imidacloprid @ 400 g/100 kg of seed, FORCE and LORSBAN as surface band at planting) came out at 3. Further, the “CORN ROOTWORM DAMAGE IN EACH IOWA CLASS (IOWA 1-6 SCALE): 2” value (plants in Iowa class 2, imidacloprid @ 400 g/100 kg of seed, FORCE and LORSBAN as surface band at planting) came to 15. Moreover, the “CORN ROOTWORM DAMAGE IN EACH IOWA CLASS (IOWA 1-6 SCALE): 3” value (plants in Iowa class 3, imidacloprid @ 400 g/100 kg of seed, FORCE and LORSBAN as surface band at planting) is 36. In addition, the “CORN ROOTWORM DAMAGE IN EACH IOWA CLASS (IOWA 1-6 SCALE): 4” value (plants in Iowa class 4, imidacloprid @ 400 g/100 kg of seed, FORCE and LORSBAN as surface band at planting) is on record as 21. Moreover, for the setting “plants in Iowa class 5, imidacloprid @ 400 g/100 kg of seed, FORCE and LORSBAN as surface band at planting”, the “CORN ROOTWORM DAMAGE IN EACH IOWA CLASS (IOWA 1-6 SCALE): 5” value was determined as 5. The “CORN ROOTWORM DAMAGE IN EACH IOWA CLASS (IOWA 1-6 SCALE): 6” value (plants in Iowa class 6, imidacloprid @ 400 g/100 kg of seed, FORCE and LORSBAN as surface band at planting) is on record as 0.

The values above are taken from US6593273B2, “Method for reducing pest damage to corn by treating transgenic corn seeds with pesticide” (priority 2000, dated 2003).
